The structures appear in SMILES notation. Activity calls are given as the source filed them.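 How the source made its calls: active means half-maximal concentration for the rise in caspase light signal at or below ten times the top tested dose; inconclusive means flat fit between 30% and 70% activity, or unreliable curve fit; inactive means the rest.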

In general, EC50 refers to the midpoint of the concentration-response curve.

This assay deals with MEF A1-2A-BIM cells, caspase 3/7 luminescence, 3 h. The assay can be described thus: caspase activation in A1-2A-BIM MEF cells, dose response, A1 inhibitor project, cell-based, luminescence, retest (AID 2765).
`CC(O)[C@H](NC(=O)C1(c2ccccc2)CCN(C(=O)OC(C)(C)C)CC1)C(=O)O` (stereo not given in full): the EC50 is > 35 µM (inactive).
Next, `NC(N)=N/N=C/c1cccc([N+](=O)[O-])c1O`: > 35 µM (inactive); `Cc1noc(C)c1S(=O)(=O)N(C)C[C@H]1Oc2ccc(NC(=O)CCC(F)(F)F)cc2C(=O)N([C@H](C)CO)C[C@@H]1C`: > 35 µM (inactive).
With `O=C(CCCCCn1c(=O)[nH]c2ccsc2c1=O)N1CCN(C2CCCCC2)CC1`, the EC50 was > 35 µM (inactive).
On to `CC1Cc2cc(/C(O)=C3/C(=O)C(=O)N(Cc4cccnc4)C3c3cccc(O)c3)ccc2O1` (stereo not given), for which the EC50 was > 35 µM (inactive).
`CCCc1ccc(OCc2ccc(C(=O)N/N=C/c3cccc([N+](=O)[O-])c3)o2)c(OC)c1`: the concentration for a half-maximal effect (EC50) is 7.22 µM.
Next, `O=C(c1cc2sccc2n1Cc1ccc(F)cc1)N1CCCc2ccccc21`: > 35 µM (inactive).
With `COC(=O)C1CSC(c2ccc(Cl)cc2)N1C(=O)c1ccccc1` (stereo not given), the EC50 is > 35 µM (inactive).
Turning to `CCn1c(SCC(=O)Nc2ccc(C(C)=O)cc2)nc2c([nH]c3ccccc32)c1=O`, the 50% effective concentration (EC50) was 13 µM.
Next, `O=S1(=O)C=C(Sc2nc3ccccc3s2)c2ccccc21`: > 35 µM (inactive).
In the case of `COc1ccc(S(=O)(=O)N2CC(O)CC2C(=O)OCc2nc3sc(C)c(C)c3c(=O)[nH]2)cc1` (stereo not given), the EC50 was > 35 µM (inactive).
Take `CC(=O)Nc1ccc(NC(=O)C(C)OC(=O)/C=C/c2cn(-c3ccccc3)nc2-c2cccnc2)cc1` (stereo not given): the EC50 was 17.1 µM.
`CC1CCc2c(sc3nc(C(C)(C)C)nc(N4CCN(C(=O)CCl)CC4)c23)C1` (stereo not given): the concentration giving a half-maximal response (EC50) was 15.4 µM.
On to `COc1cc(/C=C2/C(=N)N3C=CSC3=NC2=O)ccc1OCCCOc1cc(C)ccc1C`, for which the EC50 is 7.28 µM.
With `CCS(=O)(=O)Nc1ccc(Cc2ccncc2)cc1`, the EC50 is > 35 µM (inactive).
Regarding `COC(=O)N(NC(=O)C(O)(c1ccccc1)c1ccccc1)c1ccc(C)cc1`, the EC50 is > 35 µM (inactive).
For `COc1cc2c(c(OC)c1OC)-c1ccc(O)c(=O)cc1C(NC(C)=O)CC2` (stereo not given), the EC50 was > 35 µM (inactive).
Take `CCOc1cc(/C=C2/C(=N)N3C=CSC3=NC2=O)ccc1OCCCOc1ccccc1C`: the EC50 was 18 µM.
Consider `COc1ccc(N2CC(C(=O)N[C@H](C(=O)NC(C)c3ccccc3)C(C)C)CC2=O)cc1` (stereo not given in full), for which the EC50 is > 35 µM (inactive).
On to `NS(=O)(=O)c1ccc(CCNC(=O)CN2CCN(S(=O)(=O)c3ccccc3F)CC2)cc1`, for which the EC50 is > 35 µM (inactive).
`CCOc1cc2c(cc1OCC)C(c1ccccc1)N(c1ccccc1)C(=O)C2` (stereo not given): the EC50 is > 35 µM (inactive).
Turning to `O=C(NNc1cc(Br)c(O)c(Br)c1)c1ccccc1`, the EC50 is > 35 µM (inactive).
For the compound `FC(F)(F)c1ccc(Cl)c(NC2=NCCCCC2)c1`, the EC50 is > 35 µM (inactive).
On to `O=C1N(S(=O)(=O)c2ccccc2F)C(=O)C2(CCCC2)N1S(=O)(=O)c1ccccc1F`, for which the EC50 is > 35 µM (inactive).
Take `O=C(CS(=O)c1ccc(C(F)(F)F)cc1[N+](=O)[O-])Oc1ccccc1` (stereo not given): the EC50 is > 35 µM (inactive).
In the case of `O=C(CCCOc1ccc(Cl)cc1Cl)Nc1ncccn1`, the EC50 is > 35 µM (inactive).
As for `O=C(c1cccc(F)c1F)N1CCCC1`, the figure is > 35 µM (inactive).
With `Cc1ccc(-c2nc(NC(=O)c3nn(C)cc3[N+](=O)[O-])sc2C)cc1`, the half-maximal effective concentration (EC50) was 9.72 µM.
For the compound `CC(C)Oc1ccccc1C(=O)NC(CO)C(=O)O` (stereo not given), the EC50 was > 35 µM (inactive).
With `COc1ccc(C(=O)Nc2cccc3c2CCCC3)cc1`, the EC50 is > 35 µM (inactive).
As for `O=C(CN(c1ccc(Br)cc1)S(=O)(=O)c1ccc(Cl)c([N+](=O)[O-])c1)NCCc1ccccc1`, the figure is > 35 µM (inactive).
As to `COCc1cc(C)nc(SCC(=O)Nc2nc(C)cs2)c1C#N`, the EC50 was > 35 µM (inactive).
`Cc1[nH]c(=S)c(C#N)c(C)c1Cc1ccc(Cl)cc1Cl`: the EC50 was > 35 µM (inactive).
As to `O=C(O)/C(=C\c1c(C(=O)O)[nH]c2cc(Cl)cc(Cl)c12)c1ccccc1`, the EC50 was > 35 µM (inactive).
In the case of `O=C(Nc1ccc(-c2nc3cc(NC(=O)c4cccs4)ccc3o2)cc1)c1cccs1`, the EC50 was > 35 µM (inactive).
For the compound `CCOc1ccc(N2C(=O)CN=C2Nc2ccccc2F)cc1`, the EC50 is > 35 µM (inactive).
For the compound `Cc1cccc(C)c1OCc1nnc(SCC(=O)Nc2nccs2)n1-c1ccccc1`, the EC50 is > 35 µM (inactive).
As for `COc1ccc(-c2ccc(NS(=O)(=O)c3cc([N+](=O)[O-])c(C)c([N+](=O)[O-])c3)cc2)nn1`, the figure is > 35 µM (inactive); as for `CC(Oc1ccc(-c2nccc(-c3ccccn3)n2)cc1)C(=O)NN` (stereo not given), > 35 µM (inactive); as for `CN(Cc1ccc(F)cc1)C(=O)CNC(=O)C1CCCCC1`, > 35 µM (inactive).
As to `CC1(C(=O)NCC2CC2)C=CC2(CCCCC2)N1C(=O)c1ccccc1` (stereo not given), the EC50 is > 35 µM (inactive).
For `COc1cc(NC(=O)c2ccc(C)cc2C)ccc1NC(=O)c1cc2ccccc2o1`, the half-maximal effective concentration (EC50) was 26.7 µM.
Turning to `CC(C)OC(=O)CN1C(=O)S/C(=C/c2ccc(N3CCCCC3)o2)C1=O`, the EC50 was > 35 µM (inactive).
Next, `COc1ccccc1N1CCN(C(=O)c2ccc(C(C)(C)C)cc2)CC1`: > 35 µM (inactive).
`COc1ccc(NS(=O)(=O)c2cccc(C(=O)OCC(=O)c3c(N)n(C)c(=O)n(C)c3=O)c2)cc1`: the EC50 is > 35 µM (inactive).
As for `COc1ccccc1C/C(N)=N/OC(=O)c1cccc([N+](=O)[O-])c1`, the EC50 is > 35 µM (inactive).
Next, `CCN(CC)C(=O)CCCc1c[nH]c2ccccc12`: > 35 µM (inactive); `O=C(N/N=C/c1ccc(N2CCCCC2)o1)c1ccccc1[N+](=O)[O-]`: > 35 µM (inactive).
Take `CCCCCCCC/C=C\CCCCCCCC(=O)O`: the EC50 was > 35 µM (inactive).
Take `CCOc1ccccc1NC(=O)c1nc(S(=O)(=O)Cc2cccc(C)c2)ncc1Cl`: the EC50 was > 35 µM (inactive).
As for `CCc1ccccc1NC(=O)CN(C)C(=O)Cn1ncc(Cl)c(Cl)c1=O`, the figure is > 35 µM (inactive); as for `O=C(COc1ccc(Br)cc1F)NCC1(N2CCCCC2)CCCCC1`, > 35 µM (inactive).
In the case of `O=C(N=Nc1c(O)[nH]c2ccc([N+](=O)[O-])cc12)c1cc(-c2ccccc2Cl)nc2ccccc12`, the EC50 is > 35 µM (inactive).
Turning to `O=C(c1ccccc1Br)N(Cc1ccccc1)c1ccccc1`, the EC50 was > 35 µM (inactive).
Next, `CSc1nc(N)c(N=Nc2ccc([As](=O)(O)O)cc2)c(=O)[nH]1`: > 35 µM (inactive); `CCOC(=O)CNC(=O)N1CCCC(CNS(=O)(=O)Cc2ccccc2)C1` (stereo not given): > 35 µM (inactive); `Cc1ccc(S(=O)(=O)CC#CCOC(=O)c2ccc([N+](=O)[O-])cc2)cc1`: > 35 µM (inactive).
Next, `O=C(Nc1cccc(Cl)c1)c1ccc(OC(=S)N2CCOCC2)cc1`: > 35 µM (inactive).
Take `Cc1nccc2c1[nH]c1ccccc12`: the EC50 is > 35 µM (inactive).
As for `Cc1cc(C)cc(N=Cc2c(O)c3ccccc3oc2=O)c1`, the figure is > 35 µM (inactive).
For the compound `CCCN1C(=O)C(=O)c2cc(C)ccc21`, the EC50 is > 35 µM (inactive).
For `COc1cc(Cl)c(C)cc1NC(=O)CSc1cc(Cl)ccc1Cl`, the EC50 was > 35 µM (inactive).
For the compound `O=C(CSc1ccc(F)cc1)Nc1ccc(C2SCCS2)cc1`, the EC50 was > 35 µM (inactive).
With `O=C(NCc1ccc2c(c1)OCO2)C1CCN(c2ncccn2)CC1`, the EC50 was > 35 µM (inactive).
As for `C=C1CCc2c([nH]c3ccc(OCC(C)C)cc23)C1=O`, the EC50 is 15.1 µM.
Consider `CN(C)CCN(C(=O)/C=C/c1cccs1)c1nc2c(F)cc(F)cc2s1`, for which the EC50 was 36.1 µM.
In the case of `COc1ccc(C=C2C=C(C(C)(C)C)C(=O)C(C(C)(C)C)=C2)cc1OC`, the EC50 is 5.77 µM.
Next, `CCOC(=O)[C@H]1[C@H]2COc3ccc(OC)cc3[C@@H]2N2C(=O)CN(CC3CCCO3)C(=O)[C@@]12C` (stereo not given in full): > 35 µM (inactive); `COc1ccc(OC)c(S(=O)(=O)NC(C)c2ccc(-n3ccnc3)cc2)c1` (stereo not given): > 35 µM (inactive); `COc1ccccc1CC(=O)N1CCOCC1`: > 35 µM (inactive).
Next, `Cc1ccc(NC(=O)CN(C)S(=O)(=O)c2cnc[nH]2)c(C)c1`: > 35 µM (inactive); `Nc1ccccc1SC(C[N+](=O)[O-])c1ccccc1` (stereo not given): > 35 µM (inactive); `COc1ccc2[nH]c(=O)c(CN(CC3CCCO3)C(=O)Nc3ccccc3)cc2c1` (stereo not given): > 35 µM (inactive).
Regarding `Cc1cc(C2C(C#N)=C(N)SC(N)=C2C#N)c(C)s1`, the EC50 was > 35 µM (inactive).
For the compound `CSc1ccccc1NC(=O)c1ccc(N2CC3CC(C2)c2cccc(=O)n2C3)c(NC(=O)c2cccnc2)c1` (stereo not given), the EC50 is > 35 µM (inactive).
Next, `Cc1ccccc1/C=C/C(=O)c1ccc([N+](=O)[O-])o1`: > 35 µM (inactive); `COc1cc(-c2cc(-c3ccccc3)nc(SCC(=O)Nc3nccs3)c2C#N)cc(OC)c1OC`: > 35 µM (inactive); `Cc1ccc(CS(=O)(=O)c2ncc(Cl)c(C(=O)Nc3ccc(OC(F)F)cc3)n2)cc1`: > 35 µM (inactive).
For `CCOc1cc2[nH]c(=S)n(CCCOC)c(=O)c2cc1OCC`, the EC50 was > 35 µM (inactive).
Next, `CCCc1cc(=O)oc2c(C)c(OCC(=O)Nc3ccc(CN4CCOCC4)cc3)ccc12`: > 35 µM (inactive); `O=C(NC(Cc1ccccc1)C(=O)N1CCCCCC1)c1ccccc1` (stereo not given): > 35 µM (inactive).
Next, `CCOC(=O)/C(=C\c1cccnc1)C(=O)c1cc(C(C)=O)c(Nc2ccccc2)s1`: > 35 µM (inactive); `COc1ccc(-c2ccc3c(c2)S(=O)(=O)c2cccc(C(=O)NC[C@@H]4CCCO4)c2C3=O)cc1OC`: > 35 µM (inactive).
As for `COc1cccc(C(=O)NCC(=O)N/N=C/c2ccc(OC(=O)c3cccs3)c(OC)c2)c1`, the EC50 is > 35 µM (inactive).
Turning to `CN1CCN(CCNC(=O)Nc2ccc(Cl)cc2)CC1`, the EC50 was > 35 µM (inactive).

For the origin of these results see PubChem BioAssay AID2765 (Broad Institute, 2010).
